For 13 molecules, T/C results are on record in PubChem BioAssay AID220 (DTP/NCI, 2004).

This experiment relates to CD8F1 mice, subcutaneous mammary adenocarcinoma, T/C%. The experiment can be described thus: NCI In Vivo Anticancer Drug Screen. Data for tumor model Mammary Adenocarcinoma CD8F1 (subcutaneous) in CD8F1. To be noted: higher = larger tumour. The essentials:
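Antitumor activity is assessed in transplantable-tumor mice by comparing the treated group with a vehicle-treated control group. Survival or tumor size serves as the measure, reported as T divided by C.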

[1] abbreviates: endpoint: median tumor weight change, dose: 50.0 mg/kg/injection, schedule: Q01DX001 (ip), vehicle: Klucel (hydroxypropylcellulose) (HPC).
[2] abbreviates: endpoint: median tumor weight (est.), dose: 25.0 mg/kg/injection, schedule: Q07DX005 (ip), vehicle: suspension in saline.
[3] abbreviates: endpoint: median tumor weight (est.), dose: 50.0 mg/kg/injection, schedule: Q07DX005 (ip), vehicle: suspension in saline.

The structures appear in SMILES notation. Where “and” joins values, the source holds several entries; their conditions need not be identical. Equal entries are not always repeated. Results filed as inconclusive are left out.

With `O=NN(CCCl)C(=O)Oc1ccc(OC(=O)N(CCCl)N=O)cc1`, the T/C (endpoint: median tumor weight change, dose: 25.0 mg/kg/injection, schedule: Q01DX001 (ip), vehicle: Klucel (hydroxypropylcellulose) (HPC)) is 107 % of control and the T/C under setting [1] is 75 % of control.
In the case of `CCCCCC[C@H]([C@H](C)O)n1cnc2c(N)ncnc21`, the T/C (endpoint: median tumor weight (est.), dose: 12.5 mg/kg/injection, schedule: Q07DX005 (ip), vehicle: Klucel (hydroxypropylcellulose) (HPC)) was 60 % of control; the T/C (endpoint: median tumor weight (est.), dose: 25.0 mg/kg/injection, schedule: Q07DX005 (ip), vehicle: Klucel (hydroxypropylcellulose) (HPC)) was 305 % of control; the T/C (endpoint: median tumor weight (est.), dose: 50.0 mg/kg/injection, schedule: Q07DX005 (ip), vehicle: Klucel (hydroxypropylcellulose) (HPC)) is 206 % of control and 84 % of control; the T/C (endpoint: median tumor weight (est.), dose: 100.0 mg/kg/injection, schedule: Q07DX005 (ip), vehicle: Klucel (hydroxypropylcellulose) (HPC)) was 106 % of control; the T/C under setting [1] was 68 % of control; the T/C (endpoint: median tumor weight change, dose: 100.0 mg/kg/injection, schedule: Q01DX001 (ip), vehicle: Klucel (hydroxypropylcellulose) (HPC)) was 106 % of control. Under “endpoint: median tumor weight change, dose: 200.0 mg/kg/injection, schedule: Q01DX001 (ip), vehicle: Klucel (hydroxypropylcellulose) (HPC)”, the T/C is 79 % of control.
For `COc1ccc2c(NCCCCCCNc3c4ccccc4nc4cc(OC)ccc34)c3ccccc3nc2c1`, the T/C (endpoint: median tumor weight (est.), dose: 1.25 mg/kg/injection, schedule: Q07DX005 (ip), vehicle: lactic acid) was 77 % of control; the T/C (endpoint: median tumor weight (est.), dose: 2.5 mg/kg/injection, schedule: Q07DX005 (ip), vehicle: lactic acid) was 175 % of control; the T/C (endpoint: median tumor weight (est.), dose: 5.0 mg/kg/injection, schedule: Q07DX005 (ip), vehicle: lactic acid) is 52 % of control.
In the case of `CC(C)CCCCCCCCCCCCC(=O)NCC(=O)NC1C(C)OC(Nc2ncnc3nc[nH]c23)C(O)C1O` (configuration not stated), the T/C runs as follows: (endpoint: median tumor weight (est.), dose: 8.0 mg/kg/injection, schedule: Q07DX005 (ip), vehicle: distilled water + Tween-80) 51 % of control; (endpoint: median tumor weight (est.), dose: 16.0 mg/kg/injection, schedule: Q07DX005 (ip), vehicle: distilled water + Tween-80) 12 % of control.
For `N=C(N)c1ccc(/C=C/c2ccc(C(=N)N)cc2O)cc1`, for the setting “endpoint: median tumor weight (est.), dose: 12.5 mg/kg/injection, schedule: Q07DX005 (ip), vehicle: water”, the T/C was 75 % of control and 76 % of control.
`NC1=NCN(C2OC(CO)C(O)C2O)C(=O)N1` (configuration not stated): the T/C reads like this: (endpoint: median tumor weight (est.), dose: 25.0 mg/kg/injection, schedule: Q07DX004 (ip), vehicle: saline) 74 % of control; under setting [2], 59 % of control; (endpoint: median tumor weight (est.), dose: 50.0 mg/kg/injection, schedule: Q07DX004 (ip), vehicle: saline) 76 % of control; under setting [3], 45 % of control; (endpoint: median tumor weight (est.), dose: 100.0 mg/kg/injection, schedule: Q07DX004 (ip), vehicle: saline) 107 % of control; (endpoint: median tumor weight (est.), dose: 100.0 mg/kg/injection, schedule: Q07DX005 (ip), vehicle: suspension in saline) 56 % of control. In addition, the T/C is, setting by setting: (endpoint: median tumor weight (est.), dose: 200.0 mg/kg/injection, schedule: Q07DX004 (ip), vehicle: saline) 72 % of control; (endpoint: median tumor weight (est.), dose: 200.0 mg/kg/injection, schedule: Q07DX005 (ip), vehicle: suspension in saline) 61 % of control; (endpoint: median tumor weight (est.), dose: 400.0 mg/kg/injection, schedule: Q07DX004 (ip), vehicle: saline) 49 % of control; (endpoint: median tumor weight (est.), dose: 400.0 mg/kg/injection, schedule: Q07DX005 (ip), vehicle: suspension in saline) 34 % of control; (endpoint: median tumor weight (est.), dose: 800.0 mg/kg/injection, schedule: Q07DX004 (ip), vehicle: saline) 35 % of control; (endpoint: median tumor weight (est.), dose: 800.0 mg/kg/injection, schedule: Q07DX005 (ip), vehicle: suspension in saline) 13 % of control.
On to `CC(=O)Oc1ccccc1O`, for which the T/C (endpoint: median tumor weight change, dose: 62.5 mg/kg/injection, schedule: Q01DX001 (ip), vehicle: saline + Tween-80 + alcohol) was 50 % of control; the T/C (endpoint: median tumor weight change, dose: 125.0 mg/kg/injection, schedule: Q01DX001 (ip), vehicle: saline + Tween-80 + alcohol) was 57 % of control; the T/C (endpoint: median tumor weight change, dose: 250.0 mg/kg/injection, schedule: Q01DX001 (ip), vehicle: saline + Tween-80 + alcohol) is 58 % of control.
As to `COc1ccc([C@@]23Oc4cc(OC)cc(OC)c4[C@]2(O)[C@H](O)[C@H](C(=O)N(C)C)[C@H]3c2ccccc2)cc1`, the T/C by setting is: (endpoint: median tumor weight change, dose: 2.5 mg/kg/injection, schedule: Q01DX001 (ip), vehicle: Klucel (hydroxypropylcellulose) (HPC)) 212 % of control; (endpoint: median tumor weight change, dose: 5.0 mg/kg/injection, schedule: Q01DX001 (ip), vehicle: Klucel (hydroxypropylcellulose) (HPC)) 105 % of control; (endpoint: median tumor weight change, dose: 10.0 mg/kg/injection, schedule: Q01DX001 (ip), vehicle: Klucel (hydroxypropylcellulose) (HPC)) 72 % of control.
For `CC1CN1C(=O)NCCCCCCNC(=O)N1CC1C` (configuration not stated), the T/C reads like this: (endpoint: median tumor weight (est.), dose: 5.0 mg/kg/injection, schedule: Q07DX005 (ip), vehicle: Klucel (hydroxypropylcellulose) (HPC)) 75 % of control and 86 % of control; (endpoint: median tumor weight (est.), dose: 10.0 mg/kg/injection, schedule: Q07DX005 (ip), vehicle: Klucel (hydroxypropylcellulose) (HPC)) 40 % of control and 55 % of control; (endpoint: median tumor weight (est.), dose: 20.0 mg/kg/injection, schedule: Q07DX005 (ip), vehicle: Klucel (hydroxypropylcellulose) (HPC)) 6 % of control and 19 % of control.
For `COc1ccc(OC)c(/C=C/c2ccnc3ccccc23)c1`, the T/C was 77 % of control (endpoint: median tumor weight (est.), dose: 12.5 mg/kg/injection, schedule: Q07DX005 (ip), vehicle: saline with Tween-80); 93 % of control (endpoint: median tumor weight (est.), dose: 25.0 mg/kg/injection, schedule: Q07DX005 (ip), vehicle: saline with Tween-80); 78 % of control (endpoint: median tumor weight (est.), dose: 50.0 mg/kg/injection, schedule: Q07DX005 (ip), vehicle: saline with Tween-80); 67 % of control (endpoint: median tumor weight (est.), dose: 100.0 mg/kg/injection, schedule: Q07DX005 (ip), vehicle: saline with Tween-80); 86 % of control (endpoint: median tumor weight (est.), dose: 200.0 mg/kg/injection, schedule: Q07DX005 (ip), vehicle: saline with Tween-80); 71 % of control (endpoint: median tumor weight (est.), dose: 400.0 mg/kg/injection, schedule: Q07DX005 (ip), vehicle: saline with Tween-80).
For `COc1cccc2c1C(=O)c1c(O)c3c(c(O)c1C2=O)C[C@@](O)(/C(C)=N/NC(=O)c1cccc([N+](=O)[O-])c1)C[C@@H]3OC1CC(N)C(O)C(C)O1` (some centres not stated), the T/C is, setting by setting: (endpoint: mean tumor weight, dose: 4.0 mg/kg/injection, schedule: Q07DX004 (ip), vehicle: saline) 98 % of control; (endpoint: mean tumor weight, dose: 8.0 mg/kg/injection, schedule: Q07DX004 (ip), vehicle: saline) 51 % of control; (endpoint: mean tumor weight, dose: 16.0 mg/kg/injection, schedule: Q07DX004 (ip), vehicle: saline) 94 % of control; (endpoint: mean tumor weight, dose: 32.0 mg/kg/injection, schedule: Q07DX004 (ip), vehicle: saline) 1 % of control; (endpoint: median tumor weight (est.), dose: 4.0 mg/kg/injection, schedule: Q07DX005 (ip), vehicle: saline) 93 % of control; (endpoint: median tumor weight (est.), dose: 8.0 mg/kg/injection, schedule: Q07DX005 (ip), vehicle: saline) 41 % of control. Further, the T/C (endpoint: median tumor weight (est.), dose: 16.0 mg/kg/injection, schedule: Q07DX005 (ip), vehicle: saline) was 5 % of control.
Regarding `CCC1CN2C(=N1)c1ccccc1-c1cc(Cl)ccc12` (configuration not stated), the T/C runs as follows: (endpoint: median tumor weight (est.), dose: 3.12 mg/kg/injection, schedule: Q07DX005 (ip), vehicle: saline) 82 % of control; (endpoint: median tumor weight (est.), dose: 3.12 mg/kg/injection, schedule: Q07DX005 (ip), vehicle: suspension in saline) 111 % of control; (endpoint: median tumor weight (est.), dose: 6.25 mg/kg/injection, schedule: Q07DX005 (ip), vehicle: saline) 42 % of control; (endpoint: median tumor weight (est.), dose: 12.5 mg/kg/injection, schedule: Q07DX005 (ip), vehicle: saline) 43 % of control; (endpoint: median tumor weight (est.), dose: 12.5 mg/kg/injection, schedule: Q07DX005 (ip), vehicle: suspension in saline) 98 % of control; (endpoint: median tumor weight (est.), dose: 25.0 mg/kg/injection, schedule: Q07DX005 (ip), vehicle: saline) 30 % of control. Besides, the T/C is 64 % of control under setting [2] and 97 % of control under setting [3].
As for `O=CC(O)C(O)C(O)C(O)CO` (configuration not stated), the T/C was 66 % of control (endpoint: median tumor weight change, dose: 75.0 mg/kg/injection, schedule: Q01DX001 (ip), vehicle: saline); 43 % of control (endpoint: median tumor weight change, dose: 150.0 mg/kg/injection, schedule: Q01DX001 (ip), vehicle: saline); 61 % of control (endpoint: median tumor weight change, dose: 300.0 mg/kg/injection, schedule: Q01DX001 (ip), vehicle: saline); 35 % of control (endpoint: median tumor weight change, dose: 600.0 mg/kg/injection, schedule: Q01DX001 (ip), vehicle: saline); 55 % of control (endpoint: median tumor weight change, dose: 1200.0 mg/kg/injection, schedule: Q01DX001 (ip), vehicle: saline).
